Test results from patent US10980811B2, “Reversal of fosfomycin resistance” (University of Pittsburgh—Of the Commonwealth System of …, priority 2017, dated 2021).
Values after ≈ are worked out from the molar mass of the structure shown. Like-named read-outs stand apart in the source and are kept apart here.

Experiments:
[1] = tested on: chromosomal FosA genes expressed in E. coli; details: cited from earlier work
[2] = tested on: ESBL- and carbapenemase-producing Klebsiella pneumoniae; details: ESBL- and carbapenemase-producing K. pneumoniae; cited from earlier work
[3] = tested on: carbapenemase (KPC)-producing K. pneumoniae clinical strain I1; experiment: Bacterial growth curve analysis (Gompertz model); type: cell-based; details: for IC50: Klebsiella pneumoniae, read-out: IC50 for FOM (concentration decreasing maximum growth by 50%)
Description: Briefly, an overnight culture of K. pneumoniae I1 was diluted in Mueller-Hinton broth in a 96-well plate, incubated at 37° C. (150 rpm), and OD600 was assessed every 30 min.
The growth curves were modeled using a modified 3-parameter Gompertz equation (Zwietering et al., Appl Environ Microbiol 1990, 56(6)1875-81), which facilitated quantification of the lag time (min), growth rate (OD units/min) and maximum growth (OD units). […] The maximum growth value was determined from the curves in FIGS. 12A-12C using a 3-parameter Gompertz equation.

FosA3 Y131A = FosA3 Y131A (Escherichia coli, UniProt D7UQM0, Y131A); experiment: Tryptophan fluorescence binding studies
[4] = tested on: fosfomycin-resistant, FosA-producing Enterobacter cloacae; experiment: Growth inhibition of fosfomycin-resistant FosA-producing bacteria; type: cell-based; details: with 32 μg/mL fosfomycin; E. cloacae
Description: (§1) Each bacterial strain is resistant to fosfomycin and caries the species-specific fosfomycin-modifying gene encoding FosA.
(§2) An overnight culture of each antibiotic-resistant bacterium was grown in Mueller-Hinton Broth at 37° C., 150 rpm. The following day, the culture was diluted such that its OD600 was 0.2. The diluted culture was allowed to grow at 37° C. for 1 h. Following this, the culture was diluted such that its OD600 was 0.1. In a 96-well, round-bottom plate, three groups were set-up. […] Group three contained 10 two-fold dilutions of fosfomycin (0-1024 μg/mL). All groups contained 25% volume of the […] and 25 μg/mL glucose-6-phosphate. The plate was incubated at 37° C. for up to […]. The OD600 was assessed every […]. Data was analyzed in PRISM software or SigmaPlot® software (Systat Software Inc., San Jose, Calif.). The initial OD600 subtracted as background, and fit with a logistic growth curve.

[5] = tested on: fosfomycin-resistant, FosA-producing Klebsiella pneumoniae; experiment: as above; type: cell-based; details: with 32 μg/mL fosfomycin; K. pneumoniae
Description: as §1, §2

[6] = tested on: fosfomycin-resistant, FosA-producing Escherichia coli; experiment: as above; type: cell-based; details: with 32 μg/mL fosfomycin; E. coli
Description: as §1, §2

[7] = tested on: fosfomycin-resistant, FosA-producing Pseudomonas aeruginosa; experiment: as above; type: cell-based; details: with 32 μg/mL fosfomycin; P. aeruginosa
Description: as §1, §2

FosA3 WT = FosA3 WT (Escherichia coli, UniProt D7UQM0); experiment: Tryptophan fluorescence binding studies
[8] = target: FosA^KP (chromosomal K. pneumoniae FosA) (Klebsiella pneumoniae, UniProt W8UNW6); experiment: Isothermal titration calorimetry; type: binding
[9] = tested on: KPC-producing clinical strain E. cloacae YDC612; experiment: Growth curve analysis, FOM dose response with or without ANY1; type: cell-based; details: 112 μg/mL ANY1; P<0.05
HK2 cells = experiment: CellTiter-Glo luminescent cell viability assay; type: cell-based, human; details: 0-224 μg/mL ANY1; data not shown
Description: (§3) In all cases, cell viability was assessed using the CellTiter-Glo® luminescent cell viability assay.

FosA3 T9A = FosA3 T9A (Escherichia coli, UniProt D7UQM0, T9A); experiment: Tryptophan fluorescence binding studies
FosA3 W46A = FosA3 W46A (Escherichia coli, UniProt D7UQM0, W46A); experiment: biochemical
[10] = tested on: human peripheral blood mononuclear cells; experiment: CellTiter-Glo luminescent cell viability assay; type: cell-based; details: 0-224 μg/mL ANY1; data not shown
Description: as §3

E. coli MurA = E. coli MurA (Escherichia coli, UniProt P0A749); experiment: Isothermal titration calorimetry; type: binding; details: data not shown
[11] = tested on: KPC-producing clinical strain S. marcescens YDC760-2; experiment: Growth curve analysis, FOM dose response with or without ANY1; type: cell-based; details: 112 μg/mL ANY1; P<0.05
K. pneumoniae I1 = experiment: Time-kill experiments; type: cell-based; details: FOM with ANY1
FosA3 Y39F = FosA3 Y39F (Escherichia coli, UniProt D7UQM0, Y39F); experiment: Tryptophan fluorescence binding studies
OK cells = experiment: CellTiter-Glo luminescent cell viability assay; type: cell-based, marsupial; details: 0-224 μg/mL ANY1; data not shown
Description: as §3

FosA3 Y131F = FosA3 Y131F (Escherichia coli, UniProt D7UQM0, Y131F); experiment: Tryptophan fluorescence binding studies
FosA3 S36A = FosA3 S36A (Escherichia coli, UniProt D7UQM0, S36A); experiment: Tryptophan fluorescence binding studies
FosA3 R96A = FosA3 R96A (Escherichia coli, UniProt D7UQM0, R96A); experiment: Tryptophan fluorescence binding studies
FosA = FosA (Klebsiella pneumoniae, UniProt W8UNW6); experiment: Steady-state kinetics of ANY1 inhibition of FosA activity; type: biochemical; details: for Vmax: 0-50 mM fosfomycin
Description: Assays were carried out in a volume of 50 μl at 25° C. in 0.1 M sodium phosphate buffer (pH 8.0) containing 50 mM KCl, 25 μM MnCl2, 30 mM glutathione, and 0-50 mM fosfomycin. A 100 nM concentration of FosA was used to initiate the reaction, which was quenched after 20 minutes for FosA. Reactions were quenched by the addition of 150 μl methanol. Quenched reactions were diluted in 100 μl of 0.1 M sodium phosphate buffer (pH 8.0) containing 1 mM EDTA. Following the addition of 500 μM monochlorobimane, the concentration of glutathione was established by fluorescence spectroscopy using a SpectraMax M2 plate reader (Molecular Devices). A standard curve was prepared using 0 to 750 μM glutathione. Data were fitted to Michaelis Menten equations using SigmaPlot (Systat Software Inc., San Jose, Calif.).

[12] = tested on: FosA3-producing E. coli YD472; experiment: Growth curve analysis, FOM dose response with or without ANY1; type: cell-based; details: 112 μg/mL ANY1; P=0.04
[13] = tested on: fosfomycin-resistant Escherichia coli strain containing a deletion in the uhpT gene; experiment: Growth curves of FosA-non-producing uhpT deletion strain; type: cell-based; details: absence and presence of 32 μg/mL fosfomycin; strain without FosA gene
Description: as §2
FIGS. 8A-8B show the growth curves of a fosfomycin-resistant Escherichia coli strain containing a deletion in the uhpT gene. […] Fosfomycin resistance is conferred by decreased transport of the antibiotic across the bacterial cell wall.

FosA3 W34A = FosA3 W34A (Escherichia coli, UniProt D7UQM0, W34A); experiment: biochemical
FosA3 Y65F = FosA3 Y65F (Escherichia coli, UniProt D7UQM0, Y65F); experiment: Tryptophan fluorescence binding studies
[14] = target: FosA^KP (K. pneumoniae chromosomal FosA) (Klebsiella pneumoniae, UniProt W8UNW6); experiment: FosA screening assay (monochlorobimane fluorescence, glutathione consumption); type: biochemical
[15] = tested on: FosB enzyme from Gram-positive pathogens; experiment: Isothermal titration calorimetry; type: binding; details: data not shown

## C[C@@H]1O[C@@H]1P(=O)(O)O [FOM, Fosfomycin]
[1]; FosA of Enterobacter aerogenes
  MIC: >1024 µg/mL
[1]; FosA of Enterobacter cloacae
  MIC: >1024 µg/mL
[1]; FosA of Klebsiella oxytoca
  MIC: >1024 µg/mL
[1]; FosA of Klebsiella pneumoniae
  MIC: >1024 µg/mL
[1]; FosA of Morganella morganii
  MIC: >1024 µg/mL
[1]; FosA of Proteus mirabilis
  MIC: 9.8 µg/mL (≈ 0.071 mM)
[1]; FosA of Providencia rettgeri
  MIC: >1024 µg/mL
[1]; FosA of Providencia stuartii
  MIC: >1024 µg/mL
[1]; FosA of Pseudomonas aeruginosa
  MIC: 16 µg/mL (≈ 0.116 mM)
[1]; FosA of Serratia marcescens
  MIC: >1024 µg/mL
[2]
  MIC50: ~32 µg/mL (≈ 0.232 mM)
  MIC90: ~128 µg/mL (≈ 0.927 mM)
[3]; absence of ANY1
  IC50: 144 ± 16.5 µg/mL (≈ 1.04 mM)
[3]; presence of ANY1 (112 μg/mL)
  IC50: 23.2 ± 4.3 µg/mL

## O=c1[nH]n2cc(-c3n[nH]c(-c4cnc5c(Br)c(=O)[nH]n5c4)c3[N+](=O)[O-])cnc2c1Br [ANY1, 3-bromo-6-[3-(3-bromo-2-oxo-1H-pyrazolo[1,5-a]pyrimidin-6-yl)-4-nitro-1H-pyrazol-5-yl]-1H-pyrazolo[1,5-a]pyrimidin-2-one]
FosA3 Y131A
  Kd: 4880 ± 770 nM
[4]
  Inhibition of FosA in the strain, reversing fosfomycin resistance (growth curves): effectively inhibited FosA
[5]
  Inhibition of FosA in the strain, reversing fosfomycin resistance (growth curves): effectively inhibited FosA
[6]
  Inhibition of FosA in the strain, reversing fosfomycin resistance (growth curves): effectively inhibited FosA
[7]
  Inhibition of FosA in the strain, reversing fosfomycin resistance (growth curves): effectively inhibited FosA
FosA3 WT
  Kd: 441 ± 50.1 nM
[8]
  Kd: 180 ± 30 nM
[9]
  Decrease of the IC50 for FOM by ANY1: 23 fold
HK2 cells
  Impact on cell viability: no impact on cell viability
FosA3 T9A
  Kd: 1580 ± 97.6 nM
FosA3 W46A
  Kd: 2470 ± 111 nM
[10]
  Impact on cell viability: no impact on cell viability
E. coli MurA
  Binding to E. coli MurA: did not bind
[11]
  Decrease of the IC50 for FOM by ANY1: > 100 fold
K. pneumoniae I1
  Effect of ANY1 on FOM activity in time-kill: significantly increased FOM activity
FosA3 Y39F
  Kd: 868 ± 201 nM
OK cells
  Impact on cell viability: no impact on cell viability
FosA3 Y131F
  Kd: 551 ± 28 nM
FosA3 S36A
  Kd: 1360 ± 132 nM
FosA3 R96A
  Kd: 541 ± 90.1 nM
FosA; 5 μM ANY1
  Vmax: 118.2
FosA; 10 μM ANY1
  Vmax: 107
FosA; 20 μM ANY1
  Vmax: 154.6
FosA; data not shown
  Mode of inhibition with respect to glutathione: non-competitive inhibitor
FosA; varying fosfomycin, 0-20 μM ANY1
  Mode of inhibition with respect to fosfomycin binding to FosA: competitive inhibitor
[12]
  Decrease of the IC50 for FOM by ANY1: 1.8 fold
[13]
  Inhibition of bacterial growth: did not inhibit the bacterial growth
FosA3 W34A
  Kd: 2620 ± 205 nM
FosA3 Y65F
  Kd: 784 ± 74.7 nM
[14]
  IC50: 5000 nM
[3]; 112 μg/mL ANY1, P<0.05
  Reduction of FOM IC50 by ANY1: ~6 fold
[3]; FOM 32, 64, 128 μg/mL with ANY1 14-224 μg/mL, dose dependent
  Bacterial growth when FOM was combined with ANY1: significantly attenuated
[3]; absence of FOM
  Effect of ANY1 alone on growth: no effect
[3]; gentamicin ± ANY1 dose-response
  Effect of ANY1 on the activity of gentamicin: did not alter the activity of gentamicin
[3]; highest ANY1 concentration tested
  Increase in FOM activity (maximum growth): ~6 fold
[15]
  Binding to FosB: did not bind
